Test systems include A549; ACHN; BT-549; CAKI-1; EKVX; HCC 2998; Hs-578T; KM12; MCF7; MDA-MB-435; Malme-3M; NCI-H23; OVCAR-5; OVCAR-8; RXF 393; SK-MEL-28; SK-MEL-2; SN12C; SNB-75; UO-31.
Experiment in all cases: inhibition of tumour cell growth, NCI panel, 48 h

The structures appear in SMILES notation.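 Five compound concentrations were applied to cells in 96-well plates for 48 hours; endpoints were derived by simple linear interpolation of the resulting dose-response curve. Here, GI50 denotes the concentration required for 50% inhibition of growth.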 Calls of active or inactive are those of the source. Rule as the data show it: active = GI50 up to about 1.1 µM and inactive = higher.

Regarding `CC(/C=N/N(C)C1=NCCCCN1)=N/N(C)C1=NCCCCN1`, the GI50 in the experiment with A549, in the experiment with ACHN, in the experiment on BT-549, in the experiment on CAKI-1, in the experiment on EKVX and with HCC 2998 was > 100 µM (inactive) throughout. Also, the GI50 with Hs-578T, in the experiment on KM12, in the experiment on MCF7, in the experiment with MDA-MB-435, in the experiment with Malme-3M and in the experiment with NCI-H23 was > 100 µM (inactive) in each case. The GI50 in the experiment on OVCAR-5, in the experiment with OVCAR-8, in the experiment on RXF 393, with SK-MEL-28, with SK-MEL-2 and with SN12C was > 100 µM (inactive) each time. Also, the GI50 with SNB-75 and with UO-31 was > 100 µM (inactive) each time.

As to `CCCCCCCCCCCC(=O)OC[C@@H](C[As](=O)(O)O)OC(=O)CCCCCCCCCCC`, the GI50 in the experiment on A549 is 14.2 µM (inactive); in the experiment on ACHN it was 3.01 µM (inactive); in the experiment on BT-549, 3.48 µM (inactive); in the experiment on CAKI-1, 11.1 µM (inactive); in the experiment on EKVX, 13.7 µM (inactive); in the experiment with HCC 2998, 7.57 µM (inactive). Further, the GI50 was 3.93 µM (inactive) in the experiment with Hs-578T; 5.02 µM (inactive) in the experiment with KM12; 2.8 µM (inactive) with MCF7; 3.85 µM (inactive) with MDA-MB-435; 3.41 µM (inactive) in the experiment with Malme-3M; 5.69 µM (inactive) in the experiment with NCI-H23. For the same molecule, the GI50 in the experiment with OVCAR-5 was 16.3 µM (inactive); with OVCAR-8 it was 9.98 µM (inactive); with RXF 393, 2.43 µM (inactive); with SK-MEL-28, 4.54 µM (inactive); in the experiment with SK-MEL-2, 2.69 µM (inactive); in the experiment with SN12C it was 7 µM (inactive). The GI50 with SNB-75 was 3.82 µM (inactive); in the experiment on UO-31, 14.8 µM (inactive).

In the case of `COC(=O)C1CCOC(C)N1C(=O)OC(C)(C)C` (stereo not given), the GI50 in the experiment with A549, in the experiment on ACHN, in the experiment with BT-549, in the experiment on CAKI-1, in the experiment on EKVX and in the experiment with HCC 2998 was > 100 µM (inactive) each time. In addition, the GI50 with Hs-578T, in the experiment on KM12, with MCF7, in the experiment with MDA-MB-435, in the experiment on Malme-3M and with NCI-H23 was > 100 µM (inactive) in each case. Besides, the GI50 in the experiment with OVCAR-5, in the experiment on OVCAR-8, in the experiment with RXF 393, with SK-MEL-28, in the experiment with SK-MEL-2 and in the experiment on SN12C was > 100 µM (inactive) in each case. The GI50 in the experiment with SNB-75 and in the experiment with UO-31 was > 100 µM (inactive) throughout.

For `O=C(NCCC1CN(C(=O)OCc2ccccc2)c2ccccc21)OCc1ccccc1` (stereo not given), the GI50 in the experiment on A549 is 85.3 µM (inactive); with ACHN, > 100 µM (inactive); in the experiment with BT-549 it was > 100 µM (inactive); with CAKI-1, > 100 µM (inactive); in the experiment on EKVX, 64.6 µM (inactive); in the experiment on HCC 2998, > 100 µM (inactive). The GI50 was > 100 µM (inactive) in the experiment with Hs-578T; > 100 µM (inactive) in the experiment with KM12; 60.4 µM (inactive) in the experiment with MCF7; > 100 µM (inactive) with MDA-MB-435; > 100 µM (inactive) in the experiment on Malme-3M; > 100 µM (inactive) with NCI-H23. Moreover, the GI50 with OVCAR-5, with OVCAR-8, in the experiment on RXF 393, with SK-MEL-28, in the experiment on SK-MEL-2 and in the experiment on SNB-75 was > 100 µM (inactive) throughout. In the experiment with UO-31, the GI50 is > 100 µM (inactive).

As to `CN(C)Cc1cc(/N=N/c2ccc(Cl)cc2)cc(CN(C)C)c1O`, the GI50 was 8.93 µM (inactive) with A549; 6.43 µM (inactive) in the experiment on ACHN; 11 µM (inactive) with BT-549; 12.1 µM (inactive) in the experiment on CAKI-1; > 10 µM (inactive) in the experiment with EKVX; 10.5 µM (inactive) in the experiment with HCC 2998. The GI50 in the experiment with Hs-578T was 11.3 µM (inactive); with KM12, 6.55 µM (inactive); in the experiment with MCF7, 7.87 µM (inactive); with MDA-MB-435, 12.2 µM (inactive); in the experiment on Malme-3M it was 14.7 µM (inactive); in the experiment with NCI-H23, 21.2 µM (inactive). Moreover, the GI50 is 3.75 µM (inactive) in the experiment with OVCAR-8; 9.44 µM (inactive) in the experiment with RXF 393; 11.7 µM (inactive) with SK-MEL-28; 12.9 µM (inactive) in the experiment with SK-MEL-2; 11.4 µM (inactive) in the experiment on SN12C; 10.9 µM (inactive) with SNB-75. For the same molecule, in the experiment on UO-31, the GI50 is 1.52 µM (inactive).

Regarding `Cc1ccsc1/C=N/Nc1ncccn1`, the GI50 in the experiment with A549, in the experiment on ACHN, in the experiment on BT-549, with CAKI-1, in the experiment on EKVX and in the experiment on HCC 2998 was > 100 µM (inactive) each time. Moreover, the GI50 was > 100 µM (inactive) with Hs-578T; 32.4 µM (inactive) with KM12; 0.741 µM (active) in the experiment on MCF7; > 100 µM (inactive) with MDA-MB-435; > 100 µM (inactive) with Malme-3M; > 100 µM (inactive) in the experiment on NCI-H23. Moreover, the GI50 in the experiment with OVCAR-5, in the experiment with OVCAR-8, in the experiment with RXF 393, with SK-MEL-28, in the experiment on SK-MEL-2 and in the experiment with SN12C was > 100 µM (inactive) in each case. Also, the GI50 in the experiment on SNB-75 and in the experiment with UO-31 was > 100 µM (inactive) each time.

As to `N#CCCC(C=O)(CCC#N)CCC#N`, the GI50 in the experiment with A549, in the experiment with ACHN, in the experiment on BT-549, with CAKI-1, with EKVX and with HCC 2998 was > 100 µM (inactive) in each case. The GI50 with Hs-578T, with KM12, in the experiment on MCF7, with MDA-MB-435, in the experiment on Malme-3M and in the experiment with NCI-H23 was > 100 µM (inactive) in each case. The GI50 in the experiment with OVCAR-5, in the experiment with OVCAR-8, in the experiment on RXF 393, with SK-MEL-28, in the experiment on SK-MEL-2 and in the experiment on SN12C was > 100 µM (inactive) in each case. The GI50 in the experiment with SNB-75 and in the experiment with UO-31 was > 100 µM (inactive) in each case.

For the molecule `C/C(=N/NC(=S)Nc1cccc(Cl)c1)c1cccc(/C(C)=N\NC(=S)Nc2cccc(Cl)c2)n1`, the GI50 is 2.96 µM (inactive) in the experiment with A549; 0.813 µM (active) in the experiment with ACHN; 0.94 µM (active) in the experiment on BT-549; 2.86 µM (inactive) in the experiment with CAKI-1; 3.44 µM (inactive) in the experiment with EKVX; 6.85 µM (inactive) with HCC 2998. For the same molecule, the GI50 in the experiment with Hs-578T is > 23.8 µM (inactive); in the experiment with KM12, 3.52 µM (inactive); with MCF7, 1.99 µM (inactive); in the experiment on MDA-MB-435 it was 6.87 µM (inactive); in the experiment with Malme-3M it was 1.43 µM (inactive); in the experiment with NCI-H23 it was 3.69 µM (inactive). Also, the GI50 with OVCAR-5 was 6.43 µM (inactive); with OVCAR-8, 0.902 µM (active); in the experiment on RXF 393 it was 2.38 µM (inactive); in the experiment on SK-MEL-28 it was > 100 µM (inactive); in the experiment with SK-MEL-2, 3.73 µM (inactive); with SN12C it was 3.48 µM (inactive). For the same molecule, the GI50 with SNB-75 is 2.58 µM (inactive); in the experiment with UO-31 it was 1.67 µM (inactive).

With `Cc1nn(C(=O)c2ccc(Cl)cc2)c2c1C(c1ccccc1[N+](=O)[O-])SC(=N)N2` (stereo not given), the GI50 in the experiment on A549, with ACHN, in the experiment on BT-549, in the experiment with CAKI-1, with EKVX and in the experiment with HCC 2998 was > 10 µM (inactive) in each case. Besides, the GI50 with Hs-578T, with KM12, in the experiment with MCF7, in the experiment with MDA-MB-435, with Malme-3M and in the experiment on NCI-H23 was > 10 µM (inactive) in each case. The GI50 in the experiment on OVCAR-5 is > 10 µM (inactive); with OVCAR-8 it was > 10 µM (inactive); in the experiment with RXF 393 it was 0.569 µM (active); in the experiment on SK-MEL-2, > 10 µM (inactive); in the experiment on SN12C, > 10 µM (inactive); in the experiment on SNB-75, > 10 µM (inactive).

Consider `O=c1c2cc3c(cc2[nH]c2ncccc12)OCO3`, for which the GI50 with A549, with ACHN, in the experiment with BT-549, with CAKI-1, with EKVX and in the experiment on HCC 2998 was > 10 µM (inactive) throughout. The GI50 in the experiment on Hs-578T, in the experiment with KM12, in the experiment on MCF7, with MDA-MB-435, in the experiment on Malme-3M and in the experiment on NCI-H23 was > 10 µM (inactive) throughout. The GI50 in the experiment on OVCAR-5, with OVCAR-8, with RXF 393, in the experiment on SK-MEL-28, with SK-MEL-2 and with SN12C was > 10 µM (inactive) throughout. Besides, the GI50 in the experiment on SNB-75 was > 10 µM (inactive).

Source of the values: ChEMBL document CHEMBL1201862, “PubChem BioAssay data set” (2004).
